Data reported in PubChem BioAssay AID1919005 (Molecular Pharmacology Branch, DTP, NCI, 2023).
pIC50: −log10 of the molar value.

System: 855422-203-R-J1-PDC complex spheroid growth
Assay: Anticancer human tumor 855422-203-R-J1-PDC patient-derived bladder carcinoma cell line growth inhibition [AhR]
Details: for pIC50: curve of first compound; for viability, T/C: stronger effect = lower value
Method in brief: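 Complex tumor spheroids co-cultured with HUVEC and human MSC stroma; AhR antagonists tested in combination with standard-of-care and investigational agents. Top concentration at or near clinical Cmax (else 10 microM), half-log dilutions; growth expressed as percent test/control.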

[1] = second compound 0.1 µM, first compound 0.0316 µM
[2] = second compound 0.1 µM, first compound 0.1 µM
[3] = second compound 0.1 µM, first compound 0.316 µM
[4] = second compound 0.1 µM, first compound 1 µM
[5] = second compound 0.316 µM, first compound 0.0316 µM
[6] = second compound 0.316 µM, first compound 0.1 µM
[7] = second compound 0.316 µM, first compound 0.316 µM
[8] = second compound 0.316 µM, first compound 1 µM
[9] = second compound 1 µM, first compound 0.0316 µM
[10] = second compound 1 µM, first compound 0.1 µM
[11] = second compound 1 µM, first compound 0.316 µM
[12] = second compound 1 µM, first compound 1 µM
[13] = second compound 3.16 µM, first compound 0.0316 µM
[14] = second compound 3.16 µM, first compound 0.1 µM
[15] = second compound 3.16 µM, first compound 0.316 µM
[16] = second compound 3.16 µM, first compound 1 µM
[17] = second compound 10 µM, first compound 0.0316 µM
[18] = second compound 10 µM, first compound 0.1 µM
[19] = second compound 10 µM, first compound 0.316 µM
[20] = second compound 10 µM, first compound 1 µM
[21] = second compound 0.1 µM, first compound 3.16 µM
[22] = second compound 0.1 µM, first compound 10 µM
[23] = second compound 0.316 µM, first compound 3.16 µM
[24] = second compound 0.316 µM, first compound 10 µM
[25] = second compound 1 µM, first compound 3.16 µM
[26] = second compound 1 µM, first compound 10 µM
[27] = second compound 3.16 µM, first compound 3.16 µM
[28] = second compound 3.16 µM, first compound 10 µM
[29] = second compound 10 µM, first compound 3.16 µM
[30] = second compound 10 µM, first compound 10 µM
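Note: spheroids exposed to agents for seven days before readout.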
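Throughout, for viability, T/C: percent of DMSO vehicle control luminescence viability.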

CC1COCCN1c1cc(-c2ccnn2C)c2ccnc(-c3ccn[nH]3)c2n1 (stereo not given) + Cc1ccccc1N=Nc1ccc(NC(=O)c2ccnn2C)c(C)c1
pIC50 (second compound 0.1 µM): 6.28
pIC50 (second compound 0.316 µM): 6.29
pIC50 (second compound 1 µM): 6.29
pIC50 (second compound 3.16 µM): 6.45
pIC50 (second compound 10 µM): 6.53
viability, T/C (second compound 0.1 µM, first compound 0.00316 µM): 104%
viability, T/C (second compound 0.1 µM, first compound 0.01 µM): 99.4%
viability, T/C [1]: 97.7%
viability, T/C [2]: 98.4%
viability, T/C [3]: 67.6%
viability, T/C [4]: 27.8%
viability, T/C (second compound 0.316 µM, first compound 0.00316 µM): 101%
viability, T/C (second compound 0.316 µM, first compound 0.01 µM): 107%
viability, T/C [5]: 97.5%
viability, T/C [6]: 101%
viability, T/C [7]: 68%
viability, T/C [8]: 24.1%
viability, T/C (second compound 1 µM, first compound 0.00316 µM): 100%
viability, T/C (second compound 1 µM, first compound 0.01 µM): 106%
viability, T/C [9]: 91%
viability, T/C [10]: 97.8%
viability, T/C [11]: 66%
viability, T/C [12]: 26.9%
viability, T/C (second compound 3.16 µM, first compound 0.00316 µM): 88.6%
viability, T/C (second compound 3.16 µM, first compound 0.01 µM): 86.7%
viability, T/C [13]: 87.3%
viability, T/C [14]: 92.6%
viability, T/C [15]: 52.7%
viability, T/C [16]: 23%
viability, T/C (second compound 10 µM, first compound 0.00316 µM): 77.1%
viability, T/C (second compound 10 µM, first compound 0.01 µM): 83.5%
viability, T/C [17]: 76.4%
viability, T/C [18]: 73%
viability, T/C [19]: 48.7%
viability, T/C [20]: 20.9%

CC1COCCN1c1cc(C2(S(C)(=N)=O)CC2)nc(-c2ccnc3[nH]ccc23)n1 (stereo not given) + Cc1ccccc1N=Nc1ccc(NC(=O)c2ccnn2C)c(C)c1
pIC50 (second compound 0.1 µM): < 5.00
pIC50 (second compound 0.316 µM): < 5.00
pIC50 (second compound 1 µM): < 5.00
pIC50 (second compound 3.16 µM): < 5.00
pIC50 (second compound 10 µM): 5.10
viability, T/C [1]: 95.5%
viability, T/C [2]: 95.4%
viability, T/C [3]: 97.4%
viability, T/C [4]: 99.4%
viability, T/C [21]: 110%
viability, T/C [22]: 54.9%
viability, T/C [5]: 105%
viability, T/C [6]: 99.2%
viability, T/C [7]: 104%
viability, T/C [8]: 101%
viability, T/C [23]: 121%
viability, T/C [24]: 55.4%
viability, T/C [9]: 102%
viability, T/C [10]: 98.4%
viability, T/C [11]: 95%
viability, T/C [12]: 106%
viability, T/C [25]: 125%
viability, T/C [26]: 60%
viability, T/C [13]: 91%
viability, T/C [14]: 91.4%
viability, T/C [15]: 92.9%
viability, T/C [16]: 102%
viability, T/C [27]: 109%
viability, T/C [28]: 50.8%
viability, T/C [17]: 83.5%
viability, T/C [18]: 79%
viability, T/C [19]: 83.6%
viability, T/C [20]: 93.3%
viability, T/C [29]: 82%
viability, T/C [30]: 41.4%

COc1ccc([C@@H](O)c2cc(-c3ncnc4cc(N5CCOCC5)ccc34)c(F)cc2Cl)nn1 + Cc1ccccc1N=Nc1ccc(NC(=O)c2ccnn2C)c(C)c1
pIC50 (second compound 0.1 µM): < 5.00
pIC50 (second compound 0.316 µM): < 5.00
pIC50 (second compound 1 µM): < 5.00
pIC50 (second compound 3.16 µM): < 5.00
pIC50 (second compound 10 µM): 5.21
viability, T/C [1]: 99.2%
viability, T/C [2]: 108%
viability, T/C [3]: 98.3%
viability, T/C [4]: 96.5%
viability, T/C [21]: 87.3%
viability, T/C [22]: 71.3%
viability, T/C [5]: 107%
viability, T/C [6]: 111%
viability, T/C [7]: 99.8%
viability, T/C [8]: 102%
viability, T/C [23]: 90.1%
viability, T/C [24]: 70.3%
viability, T/C [9]: 107%
viability, T/C [10]: 102%
viability, T/C [11]: 106%
viability, T/C [12]: 96.9%
viability, T/C [25]: 87.8%
viability, T/C [26]: 63.1%
viability, T/C [13]: 95.9%
viability, T/C [14]: 100%
viability, T/C [15]: 95.7%
viability, T/C [16]: 98.6%
viability, T/C [27]: 77.1%
viability, T/C [28]: 54.8%
viability, T/C [17]: 87.8%
viability, T/C [18]: 91.6%
viability, T/C [19]: 86.1%
viability, T/C [20]: 86%
viability, T/C [29]: 62%
viability, T/C [30]: 41.4%

O=C(C=Cn1cnc(-c2cc(C(F)(F)F)cc(C(F)(F)F)c2)n1)NNc1cnccn1 + Cc1ccccc1N=Nc1ccc(NC(=O)c2ccnn2C)c(C)c1
pIC50 (second compound 0.1 µM): < 5.52
pIC50 (second compound 0.316 µM): < 5.52
pIC50 (second compound 1 µM): < 5.52
pIC50 (second compound 3.16 µM): 6.15
pIC50 (second compound 10 µM): 6.14
viability, T/C (second compound 0.1 µM, first compound 0.00949 µM): 108%
viability, T/C (second compound 0.1 µM, first compound 0.03 µM): 113%
viability, T/C (second compound 0.1 µM, first compound 0.0949 µM): 143%
viability, T/C (second compound 0.1 µM, first compound 0.3 µM): 93.1%
viability, T/C (second compound 0.1 µM, first compound 0.949 µM): 53.9%
viability, T/C (second compound 0.1 µM, first compound 3 µM): 50.1%
viability, T/C (second compound 0.316 µM, first compound 0.00949 µM): 109%
viability, T/C (second compound 0.316 µM, first compound 0.03 µM): 118%
viability, T/C (second compound 0.316 µM, first compound 0.0949 µM): 151%
viability, T/C (second compound 0.316 µM, first compound 0.3 µM): 83.7%
viability, T/C (second compound 0.316 µM, first compound 0.949 µM): 57.6%
viability, T/C (second compound 0.316 µM, first compound 3 µM): 48%
viability, T/C (second compound 1 µM, first compound 0.00949 µM): 109%
viability, T/C (second compound 1 µM, first compound 0.03 µM): 136%
viability, T/C (second compound 1 µM, first compound 0.0949 µM): 179%
viability, T/C (second compound 1 µM, first compound 0.3 µM): 78.5%
viability, T/C (second compound 1 µM, first compound 0.949 µM): 54.2%
viability, T/C (second compound 1 µM, first compound 3 µM): 48%
viability, T/C (second compound 3.16 µM, first compound 0.00949 µM): 111%
viability, T/C (second compound 3.16 µM, first compound 0.03 µM): 107%
viability, T/C (second compound 3.16 µM, first compound 0.0949 µM): 154%
viability, T/C (second compound 3.16 µM, first compound 0.3 µM): 69.8%
viability, T/C (second compound 3.16 µM, first compound 0.949 µM): 48.5%
viability, T/C (second compound 3.16 µM, first compound 3 µM): 37.8%
viability, T/C (second compound 10 µM, first compound 0.00949 µM): 85.8%
viability, T/C (second compound 10 µM, first compound 0.03 µM): 101%
viability, T/C (second compound 10 µM, first compound 0.0949 µM): 112%
viability, T/C (second compound 10 µM, first compound 0.3 µM): 58.2%
viability, T/C (second compound 10 µM, first compound 0.949 µM): 49.8%
viability, T/C (second compound 10 µM, first compound 3 µM): 45.4%
